Results as given in patent publication US5783587A, “Benzoyl Piperidines/pyrrolidines for enhancing synaptic response” (The Regents of the University of California, priority 1997, dated 1998).

Experiments:
AMPA receptors = assay: In vitro physiological testing: field EPSPs in slices of rat hippocampus (CA1); type: cell-based, rat (Sprague-Dawley); conditions: rat hippocampal slices, 15-minute perfusion, paired-pulse, second response
Experimental: The physiological effects of the compounds of this invention were determined by in vitro tests using slices of rat hippocampus according to the following procedure. Excitatory responses (field EPSPs) were measured in hippocampal slices, which are maintained in a recording chamber continuously perfused with artificial cerebrospinal fluid (ACSF). During a 15-minute interval, the perfusion medium was switched to one containing various concentrations of the test compounds. Responses collected immediately before and at the end of drug perfusion were superimposed in order to calculate both the percent increase in EPSP amplitude and the percent increase in the width of the response at one-half the peak height (half-width).
To conduct these tests, the hippocampus was removed from anesthetized, 2-month old Sprague-Dawley rats, and in vitro slices (400 micrometers thick) were prepared and maintained in an interface chamber at 35° C. using conventional techniques. This is the procedure used by Dunwiddie and Lynch, as reported in J. Physiol. 276:353-367 (1978). The chamber was constantly perfused at 0.5 mL/min with ACSF containing (in mM): NaCl, 124; KCl, 3; KH2 PO4, 1.25; MgSO4, 2.5; CaCl2, 3.4; NaHCO3, 26; glucose, 10; and L-ascorbate, 2. A bipolar nichrome stimulating electrode was positioned in the dendritic layer (stratum radiatum) of the hippocampal subfield CA1 close to the border of subfield CA3.
Current pulses (0.1 msec) through the stimulating electrode activated a population of the Schaffer-commissural (SC) fibers, which arise from neurons in the subdivision CA3 and terminate in synapses on the dendrites of CA1 neurons. Activation of these synapses causes them to release the transmitter glutamate. Glutamate binds to the post-synaptic AMPA receptors, which then transiently open an associated ion channel and permit a sodium current to enter the postsynaptic cell. This current results in a voltage in the extracellular space (the field excitatory post-synaptic potential or field "EPSP"), which is recorded by a high impedance recording electrode positioned in the middle of the stratum radiatum of CA1.
With the intensity of the stimulation current adjusted to produce half-maximal EPSPs (typically about 1.5-2.0 mV), paired stimulation pulses were given every 40 seconds with an interpulse interval of 200 msec. The field EPSPs of the second response were digitized and analyzed to determine amplitude and half-width. If the responses are stable for 15-30 minutes (baseline), test compounds were added to the perfusion lines for a period of about 15 minutes. The perfusion was then changed back to regular ACSF.
Paired-pulse stimulation is used in this type of test because stimulation of the SC fibers in part activates interneurons that generate an inhibitory postsynaptic potential (IPSP) in the pyramidal cells of CA1. This feed-forward IPSP typically sets in after the EPSP reaches its peak. The feed-forward IPSP accelerates the repolarization and shortens the decay phase of the EPSP, and could thereby partially mask the effects of the test compounds. One of the relevant features of the feed-forward IPSP is that it cannot be reactivated for several hundred milliseconds following a stimulation pulse. This phenomenon can be employed to advantage to eliminate IPSP by delivering paired pulses separated by 200 milliseconds and using the second ("primed") response for data analysis.
The field EPSP recorded in field CA1 after stimulation of CA3 axons is known to be mediated by AMPA receptors: the receptors are present in the synapses, as reported by Kessler, et al., Brain Res. 560:337-341 (1991), and drugs that selectively block the receptor selectively block the field EPSP. […] See, for example, Staubli, et al., Psychobiology 18:377-381 (1990); Xiao, et al., Hippocampus 1:373-380 (1991); and Staubli, et al., Hippocampus 2:49-58 (1992). […]

[1] = following peripheral administration in humans; cited from earlier work

Row | SMILES | estimated concentration required to increase the amplitude of the EPSP to 25% above baseline (+25% Amplitude) (AMPA receptors) [mM] | estimated concentration required to increase the half-width of the EPSP by 50% (+50% Half-Width) (AMPA receptors) [mM] | fraction of drug converted to anisoyl-GABA [1]
1 | O=C(c1ccc(COc2ccc3c(c2)OCO3)cc1)N1CCCCC1 [Compound V, 1-(4'-(3",4"-Methylenedioxyphenoxy)-methylbenzoyl)piperidine] | 0.05 | > 0.1 | 
2 | CCOCc1ccc(C(=O)N2CCCCC2)cc1 [Compound III, 1-(4'-Ethoxymethylbenzoyl)piperidine] | > 1 | 0.2 | 
3 | COCc1ccc2c(c1)OC1CCCN1C2=O (racemic) [Compound VI, (R, S)-6-Methoxymethyl-2,3-dihydro-1H-pyrrolo[2,1-b][1,3]benzoxazine-9(3aH)-one] | 0.1 | 0.2 | 
4 | COCc1ccc2c(c1)C(=O)N1CCCC1O2 (racemic) [Compound VII, (R,S)-7-Methoxymethyl-2,3-dihydro-1H-pyrrolo[2,1-b][1,3]benzoxazine-9(3aH)-one] | 0.3 | 0.2 | 
5 | COCc1ccc(C(=O)N2CCCCC2)cc1 [Compound I, 1-(4'-Methoxymethylbenzoyl)piperidine] | 0.3 | 0.3 | 
6 | O=C(c1ccc(CO)cc1)N1CCCCC1 [Compound IV, 1-(4'-Hydroxymethylbenzoyl)piperidine] | 1 | > 1 | 
7 | COc1ccc(C(=O)N2CCCC2=O)cc1 [aniracetam, N-anisoyl-2-pyrrolidinone] |  |  | about 80%
8 | COCc1cccc(C(=O)N2CCCCC2)c1 [Compound II, 1-(3'-Methoxymethylbenzoyl)piperidine] | 0.3 | > 1 | 
